Assay results published in patent EP0162330B1, “Use of sterolins and spiroketalins in the production of medicaments for the treatment of psoriasis” (Roecar Holdings (Netherlands Antilles) N.V., priority 1984, dated 1985).

Assays:
[1] = target: T1, 12-lipoxygenase of the platelets (Homo sapiens, UniProt P18054); assay: Influence upon lipoxygenase: thrombin-stimulated washed human platelets (method of Schroer et al); assay type: cell-based; conditions: washed human platelets stimulated with thrombin (0.6 iU/ml)
T1 construct: endogenous in cells; host or cells: washed human platelets
T1 sequence (P18054 1-663): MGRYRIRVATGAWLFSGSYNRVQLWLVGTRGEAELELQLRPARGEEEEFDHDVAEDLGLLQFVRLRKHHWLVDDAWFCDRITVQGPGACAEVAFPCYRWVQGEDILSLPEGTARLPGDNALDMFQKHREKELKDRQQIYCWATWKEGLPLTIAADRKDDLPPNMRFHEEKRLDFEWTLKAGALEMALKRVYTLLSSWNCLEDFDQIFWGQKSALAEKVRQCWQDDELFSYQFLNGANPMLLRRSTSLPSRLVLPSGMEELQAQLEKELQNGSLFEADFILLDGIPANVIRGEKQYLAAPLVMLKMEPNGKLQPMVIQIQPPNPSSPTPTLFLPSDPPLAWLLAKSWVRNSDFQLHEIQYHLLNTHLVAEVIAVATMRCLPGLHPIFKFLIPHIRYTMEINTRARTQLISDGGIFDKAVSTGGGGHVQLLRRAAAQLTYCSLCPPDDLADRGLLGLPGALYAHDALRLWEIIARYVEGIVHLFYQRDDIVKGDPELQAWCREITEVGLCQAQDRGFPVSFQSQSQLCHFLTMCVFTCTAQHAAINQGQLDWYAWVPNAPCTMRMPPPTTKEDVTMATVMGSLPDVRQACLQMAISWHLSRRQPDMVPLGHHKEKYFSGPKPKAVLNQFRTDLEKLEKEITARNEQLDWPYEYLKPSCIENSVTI
Protocol: The tests were performed according to the method devised by Schroer et al, Naunyn-Schmiedeberg's Arch. Pharmak. 313, 69 (1980). According to this method washed human platelets are stimulated with thrombin (0.6 iU/ml). Arachidonic acid released from the platelets upon stimulation is transformed by the 12-lipoxygenase of the platelets into 12-hydro-peroxy-eicosatetraenoic acid (12-HPETE).

[2] = test system: antigen-induced SRS-A (leukotriene) mediated bronchoconstriction; assay: In vivo antigen-induced SRS-A (leukotriene) mediated bronchoconstriction (method of Anderson et al); design: species or system guinea pigs; conditions: n=8
From the text: The effect of β-Sitosterol-β-D-glucoside was investigated on antigen-induced SRS-A (leukotriene) mediated bronchoconstriction according to the method of Anderson et al (Br. J. Pharmacol. 78,67-74, 1983). Twenty-eight to thirty-three days after the single ovalbumine dose the guinea pigs were anaesthetised and surgically prepared for intravenous administration of the test compounds and measuring the ventilatory pressure. Prior to the antigen (ovalbumine) challenge the animals were adequately pretreated with indomethacin, pyrilamine and propanolol to eliminate the effect of other interfering mediators released during the anaphylactic reaction. The test substance was administered 1 minute before the ovalbumine challenge.
The vehicle (50% DMSO in water) served as a control. Phenindone was used as the standard reference substance.

[3] = test system: 12-lipoxygenase; assay: In vitro lipoxygenase inhibition in leucocyte preparations, arachidonic acid products by radio thin-layer chromatography; assay type: cell-based, human
Protocol: (§1) Washed and resuspended platelets or leucocytes were incubated in one test with a saturated solution of β-sitosterol β-D-glucoside (23,5 mg/10ml ethanol) and in a second test with a 10 times oversaturated solution with addition of 0.25 µCi arachidonic acid for 5 minutes. The test mixtures were then acidified and extracted with ethyl acetate. Separation of the reaction products was performed by radio-thinlayer-chromatography.
(§2) The number of leukocytes in test 1 was 2000 and in test 2, 1600 and the number of platelets in the platelets test 1 was 140 000 and in test 2 it was 240 000.
(§3) After incubation with the test substance a significant inhibition of the lipoxygenase products can be shown when using platelets leading to a near complete synthesis inhibition and accumulation of non-metabolized arachidonic acid. As far as leucocytes are concerned, there is a dosage-dependant inhibitory effect of the lipoxygenase whereby the changes are mainly based on 12-hydroxyeicoscatetraenoic acid (12-HETE) and 12-HPETE while lesser changes are observed for HHT.

[4] = target: T2, 12-lipoxygenase (Homo sapiens, UniProt P18054); assay: In vitro lipoxygenase inhibition in platelets, arachidonic acid products by radio thin-layer chromatography; assay type: cell-based; conditions: 120' saturated solution
T2 construct: endogenous in cells; host or cells: washed human platelets
T2 sequence (P18054 1-663): T1 sequence (P18054 1-663)
Protocol: as §1, §2, §3

[5] = 10 mg/kg i.v., 1 minute after challenge

CCCCCC#CCC#CCC#CCC#CCCCC(=O)O [ETYA, 5,8,11,14-eicosatetraynoic acid, reference compound]
inhibition at 10 µM ([1]; 10 µM/ml): 97%

CC[C@H](CC[C@@H](C)[C@H]1CC[C@H]2[C@@H]3CC=C4C[C@@H](O[C@@H]5O[C@H](CO)[C@@H](O)[C@H](O)[C@H]5O)CC[C@]4(C)[C@H]3CC[C@]12C)C(C)C [β-Sitosterol- β-D-glucoside, β-sitosterol β-D-glucoside]
MEAN CHANGE (AS % OF MAX ±S.E.M.) IN VENTILATION PRESSURE AFTER OVALBUMIN ADMINISTRATION ([2]; 1 mg/kg i.v., 1 minute after challenge): 5.8 ±4.5 % OF MAX
MEAN CHANGE (AS % OF MAX ±S.E.M.) IN VENTILATION PRESSURE AFTER OVALBUMIN ADMINISTRATION [2, 5]: 1.8 ±2.8 % OF MAX
MEAN CHANGE (AS % OF MAX ±S.E.M.) IN VENTILATION PRESSURE AFTER OVALBUMIN ADMINISTRATION ([2]; 10 mg/kg i.v., 2 minutes after challenge): 31.0 ±9.8 % OF MAX
12 HETE 12 HPETE in % ([3]; test 1, leukocytes (2000), 30' oversaturated (10 times) solution, normal 50.2): 12.4%
12 HETE 12 HPETE in % ([3]; test 1, leukocytes (2000), 30' saturated solution (23,5 mg/10ml ethanol), normal 50.2): 35.9%
12 HETE 12 HPETE in % ([3]; test 1, leukocytes (2000), 120' saturated solution, normal 50.2): 13.4%
12 HETE 12 HPETE in % ([3]; test 2, leukocytes (1600), 30' oversaturated (10 times) solution, normal 48.0): 22.7%
12 HETE 12 HPETE in % ([3]; test 2, leukocytes (1600), 30' saturated solution, normal 48.0): 37.0%
12 HETE 12 HPETE in % ([3]; test 2, leukocytes (1600), 120' saturated solution, normal 48.0): 2.7%
12 HETE 12 HPETE in % ([4]; test 1, platelets (140 000), normal 39.8): 3.8%
12 HETE 12 HPETE in % ([4]; test 2, platelets (240 000), normal 35.0): 11.9%

O=C1CCN(c2ccccc2)N1 [Phenidone, reference compound]
MEAN CHANGE (AS % OF MAX ±S.E.M.) IN VENTILATION PRESSURE AFTER OVALBUMIN ADMINISTRATION [2, 5]: 3.1 ±1.0 % OF MAX

Diosgeninglucoside
inhibition ([1]; 5 µM/ml): 13%
inhibition ([1]; 10 µM/ml): 31%
inhibition ([1]; 50 uM/ml): 60%
